Source: US20200230068A1, “COMPOSITIONS AND METHODS OF DELIVERY OF PHARMACOLOGICAL AGENTS” (NAL PHARMACEUTICAL GROUP LIMITED, priority 2017, published 2020)
One block for each compound: values may come before it.

What was measured:
in vitro = settings: Chinese hamster; for cytotoxicity at 20 minutes, 0.01 µM: Cytotoxicity %
Description: Conjugated Complex has been tested in CHO cells expressing human recombinant sst2a. Cell viability was measured using the CellTiter-Glo® Luminescent Cell Viability Assay (Promega) that determines the number of viable cells in culture, based on quantitation of the ATP present that is an indicator of metabolically active cells.
After dispensing test compounds to the wells, cells in the incubation buffer were added to the wells and incubated for 20 minutes. At the end of incubation, CellTiter-Glo was added to each well to measure luminescence.

[1] = Stability in rat plasma in vitro; format: in vitro ADME
Description: SST-Albumin fusion proteins may have a longer serum half-life and/or more stabilized activity in solution or in a pharmaceutical composition in vitro and/or in vivo compared to the corresponding unfused SST molecules. In rat plasma, for example, more than 90% of SST fusion protein was detected until 40 minutes of incubation, and more than 70% of SST fusion proteins remained up to at least 180 min. Under the same conditions, less than about 50% of free SST remained after 40 minute incubation, and no free SST was detected beyond 120 minutes. […] Thus, it would take about 72 hours for the concentration of SST fusion protein to reach zero concentration in plasma.
The stability of free SST and SST fusion protein was compared in in vitro rat plasma.

[2] = molecular target: sst2a receptor expressed on CHO-K1 cells (UniProt P30874); experiment: cell-based or functional assay
[3] = cited from earlier work

UniProt P30874, sequence (P30874 whole entry): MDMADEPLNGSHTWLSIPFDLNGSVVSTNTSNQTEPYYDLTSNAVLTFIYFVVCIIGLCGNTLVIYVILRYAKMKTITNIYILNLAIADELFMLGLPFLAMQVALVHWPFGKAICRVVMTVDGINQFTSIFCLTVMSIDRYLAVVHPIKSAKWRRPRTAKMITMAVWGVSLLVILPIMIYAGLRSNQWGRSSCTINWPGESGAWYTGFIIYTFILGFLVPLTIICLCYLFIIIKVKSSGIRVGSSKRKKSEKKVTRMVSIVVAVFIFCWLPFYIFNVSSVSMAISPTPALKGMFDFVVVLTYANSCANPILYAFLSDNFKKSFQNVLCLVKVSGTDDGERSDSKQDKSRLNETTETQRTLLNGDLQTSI

Compound: C[C@@H]1CC[C@@]2(OC1)O[C@H]1[C@@H](O)[C@H]3[C@@H]4CC[C@H]5C[C@@H](O[C@@H]6O[C@H](CO)[C@H](O[C@@H]7O[C@H](CO)[C@@H](O)[C@H](O[C@@H]8OC[C@@H](O)[C@H](O)[C@H]8O)[C@H]7O[C@@H]7O[C@H](CO)[C@H](O)[C@H](O[C@@H]8O[C@H](CO)[C@@H](O)[C@H](O)[C@H]8O)[C@H]7O)[C@H](O)[C@H]6O)[C@H](O)C[C@]5(C)[C@H]4CC[C@]3(C)[C@H]1[C@@H]2C [Digitonin]
- cytotoxicity at 20 min, 20 mg/ml (in vitro): 100%

Compound: C[C@@H](O)[C@@H]1NC(=O)[C@H](CCCCN)NC(=O)[C@@H](Cc2c[nH]c3ccccc23)NC(=O)[C@H](Cc2ccccc2)NC(=O)[C@@H](NC(=O)[C@H](N)Cc2ccccc2)CSSC[C@@H](C(=O)N[C@H](CO)[C@@H](C)O)NC1=O [Octreotide]
- cytotoxicity at 20 minutes, 0.01 µM (in vitro; Test 2, 10 nM): 8%
- cytotoxicity at 20 minutes, 0.01 µM (in vitro; test 1, 10 nM): -4%

Compound: C[C@H](N)C(=O)NCC(=O)N[C@H]1CSSC[C@@H](C(=O)O)NC(=O)[C@H](CO)NC(=O)[C@H]([C@@H](C)O)NC(=O)[C@H](Cc2ccccc2)NC(=O)[C@H]([C@@H](C)O)NC(=O)[C@H](CCCCN)NC(=O)[C@H](Cc2c[nH]c3ccccc23)NC(=O)[C@H](Cc2ccccc2)NC(=O)[C@H](Cc2ccccc2)NC(=O)[C@H](CC(N)=O)NC(=O)[C@H](CCCCN)NC1=O [free SST, somatostatin]
- time up to which detected in rat plasma (not detected beyond) ([1]; rat plasma incubation): ≤ 120 min
- remaining at 40 min ([1]; rat plasma, 40 minutes of incubation, read-out: fraction detected/remaining in rat plasma): < 50%

- EC50 (adenylyl cyclase assay, CHO-K1 cells expressing sst2a receptor) [2]: 0.039 nM
Compound: Octreotide (peptide)

Compound: insulin-like growth factor-I [IGF-1]
- half-life [3]: 10 to 20 min
